Assays:
[1] = molecular target: ABL1 (Homo sapiens, UniProt P00519); experiment: Kinobeads competition binding: ABL1; conditions: target ABL1;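 also: selectivity score: engagement of this protein divided by summed engagement of all targets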
Excerpt: Supplement 41589_2023_1459_MOESM4_ESM.xlsx, sheet "CATDS matrix" | column: ABL1

[2] = system: ARAF; experiment: Kinobeads competition binding: ARAF; design: species or system human; conditions: target ARAF
[3] = molecular target: T1, BTK (Homo sapiens, UniProt Q06187); experiment: Kinobeads competition binding: BTK; conditions: target BTK
T1 construct: endogenous in cells
T1 sequence (Q06187 whole entry): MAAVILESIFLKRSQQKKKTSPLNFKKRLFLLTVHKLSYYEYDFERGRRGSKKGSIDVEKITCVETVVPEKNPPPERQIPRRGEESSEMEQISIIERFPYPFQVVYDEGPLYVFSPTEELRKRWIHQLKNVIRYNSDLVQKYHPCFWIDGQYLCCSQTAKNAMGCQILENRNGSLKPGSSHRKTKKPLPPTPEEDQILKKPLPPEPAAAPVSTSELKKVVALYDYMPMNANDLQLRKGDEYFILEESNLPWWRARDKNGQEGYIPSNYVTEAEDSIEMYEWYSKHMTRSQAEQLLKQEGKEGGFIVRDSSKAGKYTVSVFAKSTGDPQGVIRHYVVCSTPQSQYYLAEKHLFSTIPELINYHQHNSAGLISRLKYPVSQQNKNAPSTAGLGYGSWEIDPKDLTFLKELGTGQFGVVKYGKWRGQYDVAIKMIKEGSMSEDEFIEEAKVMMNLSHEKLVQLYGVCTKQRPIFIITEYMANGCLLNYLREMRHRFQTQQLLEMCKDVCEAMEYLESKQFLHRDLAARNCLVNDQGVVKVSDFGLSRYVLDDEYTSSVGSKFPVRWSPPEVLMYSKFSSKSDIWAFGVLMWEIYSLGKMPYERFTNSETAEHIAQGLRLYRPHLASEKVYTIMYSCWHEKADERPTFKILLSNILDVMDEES
Excerpt: Supplement 41589_2023_1459_MOESM4_ESM.xlsx, sheet "CATDS matrix" | column: BTK

[4] = molecular target: T2, CDC7 (Homo sapiens, UniProt O00311); experiment: Kinobeads competition binding: CDC7; conditions: target CDC7
T2 construct: endogenous in cells
T2 sequence (O00311 whole entry): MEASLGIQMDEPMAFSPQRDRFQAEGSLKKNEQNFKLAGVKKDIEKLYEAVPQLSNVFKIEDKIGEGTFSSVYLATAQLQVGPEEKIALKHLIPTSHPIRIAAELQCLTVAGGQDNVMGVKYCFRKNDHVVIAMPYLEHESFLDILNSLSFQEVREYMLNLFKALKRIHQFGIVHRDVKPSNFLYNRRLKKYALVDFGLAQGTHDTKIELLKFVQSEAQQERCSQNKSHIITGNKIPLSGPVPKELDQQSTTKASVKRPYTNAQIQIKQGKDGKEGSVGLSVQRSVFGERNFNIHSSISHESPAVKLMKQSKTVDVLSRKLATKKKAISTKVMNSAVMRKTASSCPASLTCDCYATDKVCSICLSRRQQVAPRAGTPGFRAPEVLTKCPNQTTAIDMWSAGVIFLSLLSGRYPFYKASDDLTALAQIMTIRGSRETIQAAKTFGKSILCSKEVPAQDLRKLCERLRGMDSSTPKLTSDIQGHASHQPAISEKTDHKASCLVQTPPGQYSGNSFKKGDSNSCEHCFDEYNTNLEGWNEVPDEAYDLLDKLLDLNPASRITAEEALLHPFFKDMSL

[5] = system: CDK10; experiment: Kinobeads competition binding: CDK10; design: species or system human; conditions: target CDK10
[6] = molecular target: T3, CDKL5 (Homo sapiens, UniProt O76039); experiment: Kinobeads competition binding: CDKL5; conditions: target CDKL5
T3 construct: endogenous in cells
T3 sequence (O76039 1-960): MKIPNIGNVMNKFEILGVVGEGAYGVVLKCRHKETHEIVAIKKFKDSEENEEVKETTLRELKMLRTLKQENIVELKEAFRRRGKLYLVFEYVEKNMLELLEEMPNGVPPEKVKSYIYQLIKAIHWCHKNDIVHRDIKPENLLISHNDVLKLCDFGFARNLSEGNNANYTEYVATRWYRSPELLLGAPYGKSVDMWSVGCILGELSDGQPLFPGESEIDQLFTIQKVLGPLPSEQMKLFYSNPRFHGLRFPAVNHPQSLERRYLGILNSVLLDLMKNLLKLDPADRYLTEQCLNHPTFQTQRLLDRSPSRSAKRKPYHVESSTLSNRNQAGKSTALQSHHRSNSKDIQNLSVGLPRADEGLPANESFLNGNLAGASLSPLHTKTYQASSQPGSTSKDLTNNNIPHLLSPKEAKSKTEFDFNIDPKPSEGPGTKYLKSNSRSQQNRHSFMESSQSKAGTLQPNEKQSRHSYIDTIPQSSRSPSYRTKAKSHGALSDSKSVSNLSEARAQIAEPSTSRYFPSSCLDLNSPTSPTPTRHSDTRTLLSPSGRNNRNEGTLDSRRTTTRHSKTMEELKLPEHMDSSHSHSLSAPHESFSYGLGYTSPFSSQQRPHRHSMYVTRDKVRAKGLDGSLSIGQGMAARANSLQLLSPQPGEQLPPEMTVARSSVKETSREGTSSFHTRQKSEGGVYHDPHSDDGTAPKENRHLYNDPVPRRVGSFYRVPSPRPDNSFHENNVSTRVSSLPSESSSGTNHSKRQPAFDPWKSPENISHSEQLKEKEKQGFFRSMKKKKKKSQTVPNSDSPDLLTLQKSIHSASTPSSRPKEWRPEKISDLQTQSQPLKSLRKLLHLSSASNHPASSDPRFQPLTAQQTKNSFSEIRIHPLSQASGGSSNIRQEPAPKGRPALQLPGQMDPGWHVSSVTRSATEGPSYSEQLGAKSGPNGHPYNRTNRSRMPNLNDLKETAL
Excerpt: Supplement 41589_2023_1459_MOESM4_ESM.xlsx, sheet "CATDS matrix" | column: CDKL5

[7] = system: COX5A; experiment: Kinobeads competition binding: COX5A; design: species or system human; conditions: target COX5A;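 also: share of total target engagement due to this protein at one drug concentration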
[8] = molecular target: T4, CSNK1D (Homo sapiens, UniProt P48730); experiment: Kinobeads competition binding: CSNK1D; conditions: target CSNK1D
T4 construct: endogenous in cells
T4 sequence (P48730 whole entry): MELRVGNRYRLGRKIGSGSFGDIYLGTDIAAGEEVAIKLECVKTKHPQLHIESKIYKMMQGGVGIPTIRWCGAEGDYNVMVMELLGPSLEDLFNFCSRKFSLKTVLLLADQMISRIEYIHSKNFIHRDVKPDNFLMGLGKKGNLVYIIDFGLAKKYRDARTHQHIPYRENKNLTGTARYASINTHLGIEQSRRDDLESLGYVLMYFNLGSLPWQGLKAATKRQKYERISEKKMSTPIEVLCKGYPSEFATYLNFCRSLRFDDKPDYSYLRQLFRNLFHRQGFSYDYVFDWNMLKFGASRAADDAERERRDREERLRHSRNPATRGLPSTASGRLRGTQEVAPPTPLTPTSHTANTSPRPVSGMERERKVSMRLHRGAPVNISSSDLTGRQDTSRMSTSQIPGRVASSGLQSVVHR

[9] = system: ERCC2; experiment: Kinobeads competition binding: ERCC2; design: species or system human; conditions: target ERCC2
[10] = system: GSPT1;GSPT2; experiment: Kinobeads competition binding: GSPT1;GSPT2; design: species or system human; conditions: target GSPT1;GSPT2
[11] = system: ILK; experiment: Kinobeads competition binding: ILK; design: species or system human; conditions: target ILK
[12] = system: MAP4K3; experiment: Kinobeads competition binding: MAP4K3; design: species or system human; conditions: target MAP4K3
[13] = molecular target: T5, MAPKAPK2 (Homo sapiens, UniProt P49137); experiment: Kinobeads competition binding: MAPKAPK2; conditions: target MAPKAPK2
T5 construct: endogenous in cells
T5 sequence (P49137 whole entry): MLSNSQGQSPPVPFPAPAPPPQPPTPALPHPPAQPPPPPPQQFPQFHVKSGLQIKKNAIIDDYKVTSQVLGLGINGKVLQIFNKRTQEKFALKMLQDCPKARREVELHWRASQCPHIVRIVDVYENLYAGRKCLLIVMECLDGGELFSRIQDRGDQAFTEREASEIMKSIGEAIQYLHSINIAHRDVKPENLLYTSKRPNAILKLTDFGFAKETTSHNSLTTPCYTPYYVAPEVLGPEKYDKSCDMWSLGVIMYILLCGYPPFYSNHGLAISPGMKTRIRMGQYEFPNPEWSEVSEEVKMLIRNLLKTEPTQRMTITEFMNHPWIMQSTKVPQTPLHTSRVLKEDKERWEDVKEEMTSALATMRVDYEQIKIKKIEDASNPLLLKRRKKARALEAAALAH

[14] = system: MTHFD1; experiment: Kinobeads competition binding: MTHFD1; design: species or system human; conditions: target MTHFD1;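 also: selectivity score: engagement of this protein divided by summed engagement of all targets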
[15] = system: NAT10; experiment: Kinobeads competition binding: NAT10; design: species or system human; conditions: target NAT10
[16] = molecular target: T6, PDXK (Homo sapiens, UniProt O00764); experiment: Kinobeads competition binding: PDXK; conditions: target PDXK;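 also: share of total target engagement due to this protein at one drug concentration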
T6 construct: a mixture of lysates from five cancer cell lines; endogenous in cells
T6 sequence (O00764 1-312): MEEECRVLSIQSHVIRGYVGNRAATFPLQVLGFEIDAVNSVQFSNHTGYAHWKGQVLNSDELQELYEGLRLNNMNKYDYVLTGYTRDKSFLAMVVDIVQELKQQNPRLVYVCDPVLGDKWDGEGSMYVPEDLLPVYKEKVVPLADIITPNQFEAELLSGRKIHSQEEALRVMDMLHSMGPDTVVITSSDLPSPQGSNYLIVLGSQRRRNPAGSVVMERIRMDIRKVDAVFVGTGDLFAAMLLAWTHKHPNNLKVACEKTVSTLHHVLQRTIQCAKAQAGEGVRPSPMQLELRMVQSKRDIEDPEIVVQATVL
Excerpt: Supplement 41589_2023_1459_MOESM4_ESM.xlsx, sheet "CATDS matrix" | column: PDXK

[17] = molecular target: T7, PKN1 (Homo sapiens, UniProt Q16512); experiment: Kinobeads competition binding: PKN1; conditions: target PKN1;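 also: share of total target engagement due to this protein at one drug concentration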
T7 construct: a mixture of lysates from five cancer cell lines; endogenous in cells
T7 sequence (Q16512 whole entry): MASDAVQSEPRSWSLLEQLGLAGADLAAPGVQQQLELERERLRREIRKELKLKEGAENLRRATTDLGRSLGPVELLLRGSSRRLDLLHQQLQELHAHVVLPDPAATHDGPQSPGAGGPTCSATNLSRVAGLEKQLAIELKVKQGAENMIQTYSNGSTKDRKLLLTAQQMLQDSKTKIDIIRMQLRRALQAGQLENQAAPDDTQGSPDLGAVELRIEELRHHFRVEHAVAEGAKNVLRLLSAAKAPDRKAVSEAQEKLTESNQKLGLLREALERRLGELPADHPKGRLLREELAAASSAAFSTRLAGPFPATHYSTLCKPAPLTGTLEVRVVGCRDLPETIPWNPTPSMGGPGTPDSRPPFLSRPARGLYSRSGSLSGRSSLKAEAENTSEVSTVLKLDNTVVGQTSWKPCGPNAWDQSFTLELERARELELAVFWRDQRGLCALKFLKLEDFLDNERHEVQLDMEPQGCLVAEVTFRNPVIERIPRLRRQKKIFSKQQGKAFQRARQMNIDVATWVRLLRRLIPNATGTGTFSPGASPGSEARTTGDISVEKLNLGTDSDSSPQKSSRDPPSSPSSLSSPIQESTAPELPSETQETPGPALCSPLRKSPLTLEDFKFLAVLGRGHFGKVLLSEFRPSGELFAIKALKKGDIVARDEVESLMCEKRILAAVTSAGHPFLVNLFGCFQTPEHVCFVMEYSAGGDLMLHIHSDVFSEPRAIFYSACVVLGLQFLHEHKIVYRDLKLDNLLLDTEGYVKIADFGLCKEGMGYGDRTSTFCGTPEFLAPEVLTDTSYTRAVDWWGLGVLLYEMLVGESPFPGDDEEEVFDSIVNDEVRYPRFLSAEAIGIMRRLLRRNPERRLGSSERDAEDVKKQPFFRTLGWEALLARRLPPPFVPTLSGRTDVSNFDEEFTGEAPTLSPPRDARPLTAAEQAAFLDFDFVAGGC
Excerpt: Supplement 41589_2023_1459_MOESM4_ESM.xlsx, sheet "CATDS matrix" | column: PKN1

Sequence of ABL1 (P00519 28-1130 limits assumed): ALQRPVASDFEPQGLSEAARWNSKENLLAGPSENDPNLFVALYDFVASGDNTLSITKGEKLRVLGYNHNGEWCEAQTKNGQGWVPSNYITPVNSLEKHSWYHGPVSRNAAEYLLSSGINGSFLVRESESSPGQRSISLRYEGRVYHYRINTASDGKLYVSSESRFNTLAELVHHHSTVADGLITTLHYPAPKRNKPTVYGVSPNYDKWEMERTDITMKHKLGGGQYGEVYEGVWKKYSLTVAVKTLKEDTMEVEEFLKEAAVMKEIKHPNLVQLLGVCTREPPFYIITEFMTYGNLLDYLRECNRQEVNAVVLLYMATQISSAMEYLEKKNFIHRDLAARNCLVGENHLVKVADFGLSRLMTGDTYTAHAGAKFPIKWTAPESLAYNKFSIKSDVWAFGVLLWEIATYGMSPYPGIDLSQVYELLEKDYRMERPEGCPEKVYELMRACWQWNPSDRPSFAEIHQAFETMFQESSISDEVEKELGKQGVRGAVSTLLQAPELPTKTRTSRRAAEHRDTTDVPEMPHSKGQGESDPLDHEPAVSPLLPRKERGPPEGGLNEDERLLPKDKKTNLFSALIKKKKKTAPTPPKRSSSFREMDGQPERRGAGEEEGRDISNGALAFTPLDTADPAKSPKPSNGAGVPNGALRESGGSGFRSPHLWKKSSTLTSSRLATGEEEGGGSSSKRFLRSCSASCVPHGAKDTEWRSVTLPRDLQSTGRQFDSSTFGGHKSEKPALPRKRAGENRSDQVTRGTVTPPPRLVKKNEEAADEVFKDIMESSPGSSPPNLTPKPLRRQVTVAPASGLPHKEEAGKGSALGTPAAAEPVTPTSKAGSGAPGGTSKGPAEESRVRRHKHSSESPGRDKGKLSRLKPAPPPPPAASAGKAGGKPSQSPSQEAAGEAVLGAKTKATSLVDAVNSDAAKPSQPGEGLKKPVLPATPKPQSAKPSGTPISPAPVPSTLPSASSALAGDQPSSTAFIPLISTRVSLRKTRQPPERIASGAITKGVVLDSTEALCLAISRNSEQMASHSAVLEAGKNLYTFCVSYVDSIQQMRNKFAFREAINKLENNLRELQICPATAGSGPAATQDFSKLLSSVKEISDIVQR

Row | Compound | CATDS [1] | CATDS [2] | CATDS [3] | CATDS [4] | CATDS [5] | CATDS [6] | CATDS [7] | CATDS [8] | CATDS [9] | CATDS [10] | CATDS [11] | CATDS [12] | CATDS [13] | CATDS [14] | CATDS [15] | CATDS [16] | CATDS [17]
1 | Nc1ncnc2[nH]c(-c3ccccc3)nc12 [AH5015_KCGS] | 0 | 0 | 0 | 0 | 0 | 0 | 0 | 0 | 0.1122 | 0 | 0 | 0 | 0 | 0 | 0 | 0 | 0
2 | CCN1CCN(Cc2ccc(Nc3ncc(F)c(-c4cc(F)c5nc(C)n(C(C)C)c5c4)n3)nc2)CC1 [Abemaciclib] | 0 | 0 | 0 | 0 | 0 | 0.6907 | 0 | 0 | 0 | 0 | 0 | 0 | 0 | 0 | 0 | 0 | 0
3 | CN(C)C/C=C/C(=O)Nc1cc2c(Nc3ccc(F)c(Cl)c3)ncnc2cc1O[C@H]1CCOC1 [Afatinib] | 0 | 0 | 0 | – | 0 | 0 | 0 | 0 | 0 | – | – | – | – | 0 | 0 | 0 | 0
4 | CCc1cc2c(cc1N1CCC(N3CCOCC3)CC1)C(C)(C)c1[nH]c3cc(C#N)ccc3c1C2=O [Alectinib] | 0 | 0 | 0 | 0 | 0 | 0 | 0 | 0 | 0 | 0 | 0 | 0 | 0 | 0 | 0 | 0 | 0
5 | N#CC1(c2ccc(NC(=O)c3cccnc3NCc3ccncc3)cc2)CCCC1 [Apatinib] | 0 | 0 | 0 | 0 | 0 | 0 | 0 | 0 | 0 | 0 | 0 | 0 | 0 | 0 | 0 | 0 | 0
